Where two headings read alike, the source gives them in different places. Starred links: 1 amine or outer side, 2 acyl side, 3 side chain; linkers in the order of their positions; H or OH if unused. Positions of bridges follow the written chain, without caps; N, C: chain ends. Non-standard residues stand in square brackets, D forms with d. Residues, ends and D or L forms follow the SMILES beside them. ξ: configuration not given here. *: point of attachment. NMePhe(3-Cl) = CN[C@@H](Cc1cccc(Cl)c1)C(=O)O; NMeF = CN[C@@H](Cc1ccccc1)C(=O)O; NMeGABA = CN(CCCC(=O)[*:2])[*:1]; NMeI = CC[C@H](C)[C@H](NC)C(=O)O; NMeβAla = CN(CCC(=O)[*:2])[*:1]; NMeL = CN[C@@H](CC(C)C)C(=O)O; NMeV = CN[C@H](C(=O)O)C(C)C; NMeA = CN[C@@H](C)C(=O)O; Piperidide = C1CCN(*)CC1; dNMeA = CN[C@H](C)C(=O)O; ξL = CC(C)CC(N)C(=O)O; Sar = CNCC(=O)O; tBu = CC(C)(C)*
Legend:
[1] = Metabolic stability in human hepatic microsome; format: in vitro ADME; conditions: microsomes
[2] = PAMPA (parallel artificial membrane permeability assay); format: in vitro ADME; conditions: for Papp at 18 hours, 50 µM: PAMPA
Outline: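 Artificial membrane was 10% (w/v) egg lecithin plus 0.5% (w/v) cholesterol in dodecane on a PVDF filter. A 10 mM DMSO stock was added at 0.5% (v/v) to donor buffer (50 mM MOPSO, pH 6.5, 5.0% glycocholic acid). After 18 h at 37 °C, LC/MS or LC/UV gave donor and acceptor levels for Pe.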

[3] = pH 7.4, human hepatic microsome, NADPH(+), read-out: CL NADPH(+)
[4] = membrane permeation rate (Pe), 50 mM MOPSO buffer pH 6.5 with 5.0% glycocholic acid, 37° C., 18 hours, read-out: iPAMPA Pe

| Structure (SMILES) | microsomal CLint at 1 uM [1, 3] [µL/min/mg] | Papp at 18 hours, 50 µM [2, 4] [×10⁻⁶ cm/s] | microsomal CLint at 1 uM ([1]; human, pH 7.4, CL NADPH(+)) [µL/min/mg] | Papp at 18 hours, 50 µM ([2]; pH 6.5) [×10⁻⁶ cm/s] | iPAMPA Pe ([2]; membrane permeation rate (Pe), 50 mM MOPSO buffer pH 6.5 with 5.0% glycocholic acid, 37° C., 18 hours) |
| --- | --- | --- | --- | --- | --- |
| CC[C@H](C)[C@@H]1NC(=O)[C@H](Cc2ccccc2)NC(=O)[C@H](C)N(C)C(=O)C[C@@H](C(=O)N2CCCCC2)NC(=O)[C@H](CC(C)C)NC(=O)[C@H](Cc2ccccc2)NC(=O)[C@H](Cc2ccccc2)N(C)C(=O)[C@H](CC(C)C)NC(=O)[C@H]([C@@H](C)O)NC(=O)[C@H](CC(C)C)N(C)C1=O [DP-332] ([NMeA]FI[NMeL]TL[NMeF]FLD-Piperidide; lactam N-10) | 284 | 14 | – | – | – |
| CC[C@H](C)[C@H]1C(=O)N(C)[C@@H](Cc2ccccc2)C(=O)N[C@H](C(=O)N2CCCCC2)CC(=O)N(C)CCC(=O)NC(CC(C)C)C(=O)N(C)[C@@H](Cc2ccccc2)C(=O)N(C)[C@@H](CC(C)C)C(=O)N(C)[C@@H](C(C)C)C(=O)N[C@@H](C)C(=O)N(C)[C@@H](C)C(=O)N[C@@H]([C@@H](C)O)C(=O)N(C)CC(=O)N1C (stereo partly drawn) [DP-61] ([NMeβAla][ξL][NMeF][NMeL][NMeV]A[NMeA]T[Sar][NMeI][NMeF]D-Piperidide; lactam N-12) | – | – | 47 | 19 | – |
| CC(C)C[C@@H]1NC(=O)[C@H](CC(C)C)N(C)C(=O)[C@H](C)N(C)C(=O)C[C@@H](C(=O)N2CCCCC2)NC(=O)[C@H](CC(C)C)N(C)C(=O)[C@H](Cc2ccccc2)N(C)C(=O)[C@H](Cc2ccccc2)N(C)C(=O)[C@H]([C@@H](C)O)NC(=O)[C@H](Cc2ccccc2)N(C)C1=O [DP-442] ([NMeA][NMeL]L[NMeF]T[NMeF][NMeF][NMeL]D-Piperidide; lactam N-9) | 159 | 38 | – | – | – |
| CC(C)C[C@H]1C(=O)N[C@@H](C(C)C)C(=O)N(C)[C@@H](C)C(=O)N(C)[C@@H](C)C(=O)N[C@@H]([C@@H](C)O)C(=O)N(C)[C@@H](C)C(=O)N[C@H](C(=O)N(C)[C@@H](Cc2ccccc2)C(=O)N(C)[C@@H](Cc2ccccc2)C(=O)N[C@@H](C)C(=O)N2CCCCC2)CC(=O)N(C)[C@H](C)C(=O)N(C)[C@@H](Cc2ccccc2)C(=O)N1C [DP-400] ([dNMeA][NMeF][NMeL]V[NMeA][NMeA]T[NMeA]D[NMeF][NMeF]A-Piperidide; lactam N-9) | 24 | 15 | – | – | – |
| CC[C@H](C)[C@H]1C(=O)N(C)[C@@H](CC(C)C)C(=O)N(C)[C@@H](Cc2ccccc2)C(=O)N[C@@H]([C@@H](C)O)C(=O)N(C)[C@@H](Cc2ccccc2)C(=O)N(C)[C@@H](CC(C)C)C(=O)N(C)[C@@H](CC(C)C)C(=O)N[C@H](C(=O)N2CCCCC2)CC(=O)N[C@H](C(C)C)C(=O)N[C@@H](C)C(=O)N1C [DP-256] ([dV]A[NMeI][NMeL][NMeF]T[NMeF][NMeL][NMeL]D-Piperidide; lactam N-10) | 44 | 19 | – | – | – |
| CC(C)C[C@H]1C(=O)N(C)[C@@H](CC(C)C)C(=O)N[C@@H](C(C)C)C(=O)N[C@H](C(=O)N(C)[C@@H](Cc2ccccc2)C(=O)N(C)[C@@H](Cc2ccccc2)C(=O)N[C@@H](C)C(=O)N2CCCCC2)CC(=O)N(C)CCC(=O)N(C)[C@@H](C)C(=O)N(C)[C@@H](Cc2ccccc2)C(=O)N[C@@H]([C@@H](C)O)C(=O)N(C)CC(=O)N1C [DP-212] ([NMeβAla][NMeA][NMeF]T[Sar][NMeL][NMeL]VD[NMeF][NMeF]A-Piperidide; lactam N-9) | 27 | 29 | – | – | – |
| CC(C)C[C@H]1C(=O)N[C@H](C(=O)N2CCCCC2)CC(=O)N(C)CCCC(=O)N(C)[C@@H](Cc2ccccc2)C(=O)N[C@@H]([C@@H](C)O)C(=O)N(C)[C@@H](C)C(=O)N[C@@H](COC(C)(C)C)C(=O)N1C [DP-680] ([NMeGABA][NMeF]T[NMeA]S(tBu)[NMeL]D-Piperidide; lactam N-7) | 96 | 15 | – | – | – |
| CC(C)C[C@H]1C(=O)N[C@@H]([C@@H](C)O)C(=O)N(C)[C@@H](C)C(=O)N(C)[C@@H](CC(C)C)C(=O)N[C@@H](C(C)C)C(=O)N[C@H](C(=O)N(C)[C@@H](Cc2ccccc2)C(=O)N(C)[C@@H](Cc2ccccc2)C(=O)N[C@@H](C)C(=O)N2CCCCC2)CC(=O)N(C)[C@H](C)C(=O)N(C)[C@@H](Cc2ccccc2)C(=O)N(C)CC(=O)N1C [DP-214] ([dNMeA][NMeF][Sar][NMeL]T[NMeA][NMeL]VD[NMeF][NMeF]A-Piperidide; lactam N-9) | 33 | 34 | – | – | – |
| CC[C@H](C)[C@H](NC(=O)[C@H](Cc1ccccc1)N(C)C(=O)[C@H](Cc1ccccc1)N(C)C(=O)[C@@H]1CC(=O)N(C)CCC(=O)N[C@@H]([C@@H](C)CC)C(=O)N(C)[C@@H](Cc2ccccc2)C(=O)N(C)[C@@H](CC(C)C)C(=O)N[C@@H]([C@@H](C)O)C(=O)N(C)CC(=O)N(C)[C@@H](CC(C)C)C(=O)N[C@@H](C(C)C)C(=O)N(C)[C@@H](CC(C)C)C(=O)N1)C(=O)N1CCCCC1 [DP-961] ([NMeβAla]I[NMeF][NMeL]T[Sar][NMeL]V[NMeL]D[NMeF][NMeF]I-Piperidide; lactam N-10) | 33 | 0.57 | – | – | – |
| CC[C@H](C)[C@H](NC(=O)[C@H](CC(C)C)N(C)C(=O)[C@H](C)N(C)C(=O)[C@@H](NC(=O)[C@H](CC(C)C)N(C)C(=O)[C@@H]1CC(=O)N[C@H](C(C)C)C(=O)N(C)[C@@H](C)C(=O)N(C)[C@@H](Cc2cccc(Cl)c2)C(=O)N(C)[C@@H](CC(C)C)C(=O)N[C@@H]([C@@H](C)O)C(=O)N(C)[C@@H](CC(C)C)C(=O)N1)[C@@H](C)CC)C(=O)N1CCCCC1 [DP-911] ([dV][NMeA][NMePhe(3-Cl)][NMeL]T[NMeL]D[NMeL]I[NMeA][NMeL]I-Piperidide; lactam N-7) | 152 | – | – | – | 1.0E−07 |
| CC[C@H](C)[C@H]1C(=O)N(C)[C@@H](CC(C)C)C(=O)N[C@@H](C)C(=O)N(C)[C@@H](CC(C)C)C(=O)N(C)[C@@H](Cc2ccccc2)C(=O)N[C@@H]([C@@H](C)O)C(=O)N(C)[C@@H](Cc2ccccc2)C(=O)N(C)[C@@H](CC(C)C)C(=O)N(C)[C@@H](C)C(=O)N[C@H](C(=O)N2CCCCC2)CC(=O)N[C@H](C(C)C)C(=O)N1C [DP-235] ([dV][NMeI][NMeL]A[NMeL][NMeF]T[NMeF][NMeL][NMeA]D-Piperidide; lactam N-11) | 58 | 9 | – | – | – |
| CC[C@H](C)[C@H]1C(=O)N(C)[C@@H](CC(C)C)C(=O)N[C@H](C(=O)N2CCCCC2)CC(=O)N[C@H](C)C(=O)N(C)[C@@H](CC(C)C)C(=O)N[C@@H](CC(C)C)C(=O)N(C)[C@@H](Cc2ccccc2)C(=O)N[C@@H](COC(C)(C)C)C(=O)N(C)[C@@H](Cc2ccccc2)C(=O)N[C@@H]([C@@H](C)O)C(=O)N(C)[C@@H](C)C(=O)N1C [DP-96] ([dA][NMeL]L[NMeF]S(tBu)[NMeF]T[NMeA][NMeI][NMeL]D-Piperidide; lactam N-11) | – | – | 51 | 13 | – |
| CC(C)C[C@H]1C(=O)N[C@@H](C)C(=O)N(C)[C@@H](C)C(=O)N[C@H](C(=O)N(C)[C@@H](Cc2ccccc2)C(=O)N[C@@H](C)C(=O)N2CCCCC2)CC(=O)N(C)[C@@H](C)C(=O)N(C)[C@@H](C(C)C)C(=O)N(C)[C@@H](C)C(=O)N[C@@H]([C@@H](C)O)C(=O)N(C)[C@@H](C)C(=O)N[C@@H](Cc2ccccc2)C(=O)N1C [DP-458] ([NMeA][NMeV][NMeA]T[NMeA]F[NMeL]A[NMeA]D[NMeF]A-Piperidide; lactam N-10) | 10 | 7.7 | – | – | – |
| CC(C)C[C@H]1C(=O)N(C)[C@@H](CC(C)C)C(=O)N[C@@H](COC(C)(C)C)C(=O)N[C@H](C(=O)N2CCCCC2)CC(=O)N[C@@H](C(C)C)C(=O)N(C)[C@@H](Cc2ccccc2)C(=O)N(C)CC(=O)N[C@@H]([C@@H](C)O)C(=O)N1C [DP-694] (V[NMeF][Sar]T[NMeL][NMeL]S(tBu)D-Piperidide; lactam N-8) | 170 | 33 | – | – | – |
| CC[C@H](C)[C@H]1C(=O)N(C)[C@@H](CC(C)C)C(=O)N(C)[C@@H](Cc2ccccc2)C(=O)N[C@@H](CC(C)C)C(=O)N(C)[C@@H](C(C)C)C(=O)N[C@@H](Cc2ccccc2)C(=O)N[C@@H]([C@@H](C)O)C(=O)N[C@H](C(=O)N2CCCCC2)CC(=O)N(C)CCC(=O)N[C@@H](C)C(=O)N1C [DP-259] ([NMeβAla]A[NMeI][NMeL][NMeF]L[NMeV]FTD-Piperidide; lactam N-10) | 91 | 28 | – | – | – |
| CC[C@H](C)[C@@H]1NC(=O)[C@H](CC(C)C)N(C)C(=O)[C@H](C)N(C)C(=O)[C@H]([C@@H](C)O)NC(=O)[C@H](CC(C)C)N(C)C(=O)[C@H](Cc2ccccc2)N(C)C(=O)[C@@H](C(C)C)NC(=O)C[C@@H](C(=O)N(C)[C@@H](Cc2ccccc2)C(=O)N[C@@H](C)C(=O)N2CCCCC2)NC(=O)[C@H](C(C)C)N(C)C1=O [DP-308] ([dV][NMeF][NMeL]T[NMeA][NMeL]I[NMeV]D[NMeF]A-Piperidide; lactam N-9) | – | – | – | 27 | – |
| CC(C)C[C@H]1C(=O)N[C@H](C(=O)N(C)[C@@H](Cc2ccccc2)C(=O)N[C@@H](C)C(=O)N2CCCCC2)CC(=O)N(C)[C@@H](C)C(=O)N[C@@H]([C@@H](C)O)C(=O)N(C)[C@@H](Cc2ccccc2)C(=O)N(C)[C@@H](CC(C)C)C(=O)N(C)[C@@H](CC(C)C)C(=O)N[C@@H](C)C(=O)N(C)[C@@H](Cc2ccccc2)C(=O)N(C)[C@@H](CC(C)C)C(=O)N1C [DP-192] ([NMeA]T[NMeF][NMeL][NMeL]A[NMeF][NMeL][NMeL]D[NMeF]A-Piperidide; lactam N-10) | – | 0.64 | – | – | – |
